Tests used:
[1] = tested on: Pioneer 39K40 hybrid maize; assay: Test A: visual plant response rating, postemergence herbicide treatments alone and with Compound 1; assay type: in vivo, Zea mays L. spp. indentata Sturt.; conditions: in vivo
Procedure: (§1) For all of the following biological tests, plant response ratings were based on a 0-100 scale where zero is growth equivalent to that of untreated plants (no plant response) and 100 represents no additional growth occurring after herbicide treatment.
(§2) Pioneer 39K40 hybrid maize used in this test (and also Tests B and C) is particularly sensitive to herbicides that inhibit the acetohydroxy acid synthase enzyme. Herbicide mixtures were dissolved/dispersed in a non-phytotoxic liquid carrier and were sprayed postemergence to Pioneer 39K40 hybrid maize (Zea mays L. spp. indentata Sturt.) in the third collar growth stage (extended leaf height was 50-60 cm). Treated plants were grown under greenhouse conditions for two weeks before visual evaluations of plant responses were recorded.

[2] = tested on: Pioneer 39K40 hybrid maize; assay: Test B: visual plant response rating, postemergence herbicides with Compound 1 rate series; assay type: in vivo, Zea mays L. spp. indentata Sturt.; conditions: in vivo
Procedure: as §1
as §2, with “Herbicide” for “Pioneer 39K40 hybrid maize used in this test (and also Tests B and C) is particularly sensitive to herbicides that inhibit the acetohydroxy acid synthase enzyme. Herbicide”

lambsquarters = assay: Test I: postemergence plant response rating; assay type: in vivo, Chenopodium album L.; conditions: lambsquarters, postemergence, greenhouse, two weeks, 0-100 scale
Text: as §1
(§3) Herbicide mixtures were formulated, dissolved/dispersed in water containing 0.25% non-ionic surfactant, and sprayed postemergence to the crop: soybean (Glycine max (L.) Merr.) at the 2-leaf growth stage and to weeds: lambsquarters (Chenopodium album L.) and velvetleaf (Abutilon theophrasti Medik.). Weed species were 5-10 cm tall when treated. Treated plants were grown under greenhouse conditions for two weeks before visual evaluations of plant responses were recorded.

velvetleaf = assay: Test I: postemergence plant response rating; assay type: in vivo, Abutilon theophrasti Medik.; conditions: velvetleaf, postemergence, greenhouse, two weeks, 0-100 scale
Text: as §1, §3

[3] = tested on: Pioneer 39K40 hybrid maize; assay: Test C: visual plant response rating, postemergence acetohydroxy acid synthase-inhibiting herbicides alone and with Compound 1; assay type: in vivo, Zea mays L. spp. indentata Sturt.; conditions: greenhouse, two weeks, 0-100 scale
Procedure: as §1
Herbicide mixtures were dissolved/dispersed in a non-phytotoxic liquid carrier and were sprayed postemergence to Pioneer 39K40 hybrid maize (Zea mays L. spp. indentata Sturt.) in the third collar growth stage (extended leaf height was 40-60 cm). Treated plants were grown under greenhouse conditions for two weeks before visual evaluations of plant responses were recorded.

[4] = tested on: sunflower variety Pioneer 63N82 bred for resistance to tribenuron-methyl; assay: Test H: tribenuron-tolerant sunflower postemergence plant response rating; assay type: in vivo, Helianthus annuus L. var. Pioneer 63N82; conditions: 2-leaf stage, greenhouse, two weeks, 0-100 scale
Text: as §1
Herbicide mixtures were formulated, dissolved/dispersed in water containing 0.25% non-ionic surfactant, and sprayed postemergence at the 2-leaf growth stage to a sunflower variety (Helianthus annuus L. var. Pioneer 63N82) bred for resistance to tribenuron-methyl. Treated plants were grown under greenhouse conditions for two weeks before visual evaluations of plant responses were recorded.

sugarcane = assay: Test J: sugarcane postemergence plant response rating, field conditions; assay type: in vivo, Saccharum officinarum L.; conditions: postemergence, field, four weeks, 0-100 scale
Procedure: as §1
(§4) Herbicide mixtures were formulated, dissolved/dispersed in water containing 0.25% non-ionic surfactant, and sprayed postemergence to sugarcane (Saccharum officinarum L.) approximately 20-40 cm tall (extended leaf height). This test was conducted under field conditions. Visual evaluations of plant responses were recorded four weeks after the plants were treated.

Surinam grass = assay: Test K: pasture grass postemergence plant response rating, field conditions; assay type: in vivo, Brachiaria decumbens Stapf; conditions: Surinam grass, postemergence, field, four weeks, 0-100 scale
Text: as §1
as §4, with “the pasture grasses: Surinam grass (Brachiaria decumbens Stapf), palisade grass (Brachiaria brizantha (Hochst. ex A. Rich) Stapf) and Alexandergrass (Brachiaria plantaginea (Link) A. S. Hitchc.)” for “sugarcane (Saccharum officinarum L.)”, “10-30” for “20-40”

palisade grass = assay: as above; assay type: in vivo, Brachiaria brizantha (Hochst. ex A. Rich) Stapf; conditions: Palisade grass, postemergence, field, four weeks, 0-100 scale
Text: as §1
as §4, with “the pasture grasses: Surinam grass (Brachiaria decumbens Stapf), palisade grass (Brachiaria brizantha (Hochst. ex A. Rich) Stapf) and Alexandergrass (Brachiaria plantaginea (Link) A. S. Hitchc.)” for “sugarcane (Saccharum officinarum L.)”, “10-30” for “20-40”

Alexandergrass = assay: as above; assay type: in vivo, Brachiaria plantaginea (Link) A. S. Hitchc.; conditions: Alexandergrass, postemergence, field, four weeks, 0-100 scale
Text: as §1
as §4, with “the pasture grasses: Surinam grass (Brachiaria decumbens Stapf), palisade grass (Brachiaria brizantha (Hochst. ex A. Rich) Stapf) and Alexandergrass (Brachiaria plantaginea (Link) A. S. Hitchc.)” for “sugarcane (Saccharum officinarum L.)”, “10-30” for “20-40”

[5] = herbicide 4 g ai/ha + Compound 1 125 g ai/ha
[6] = herbicide 8 g ai/ha + Compound 1 125 g ai/ha
[7] = herbicide 30 g ai/ha + Compound 1 70 g ai/ha
[8] = herbicide 30 g ai/ha + Compound 1 140 g ai/ha

## CCS(=O)(=O)c1cccnc1S(=O)(=O)NC(=O)Nc1nc(OC)cc(OC)n1 [Rimsulfuron, rimsulfuron]
[1]
  Observed Response, Herbicide alone: 92
[2]
  Observed Response, Herbicide alone: 62

## COC(=O)c1sccc1S(=O)(=O)NC(=O)Nc1nc(C)nc(OC)n1 [Thifensulfuron-methyl, thifensulfuron-methyl]
[1]
  Observed Response, Herbicide alone: 73
[2]
  Observed Response, Herbicide alone: 45
lambsquarters; [5]
  Observed Response, Herbicide mixture with Compound 1: 99
lambsquarters; herbicide 4 g ai/ha
  Observed Response, Herbicide alone: 98
lambsquarters; [6]
  Observed Response, Herbicide mixture with Compound 1: 100
lambsquarters; herbicide 8 g ai/ha
  Observed Response, Herbicide alone: 100
velvetleaf; [5]
  Observed Response, Herbicide mixture with Compound 1: 99
velvetleaf; herbicide 4 g ai/ha
  Observed Response, Herbicide alone: 99
velvetleaf; [6]
  Observed Response, Herbicide mixture with Compound 1: 100
velvetleaf; herbicide 8 g ai/ha
  Observed Response, Herbicide alone: 100

## COC(=O)c1ccccc1S(=O)(=O)NC(=O)Nc1nc(C)cc(C)n1 [Sulfometuron-methyl, sulfometuron-methyl]
[3]; [6]
  Observed Response, Herbicide mixture with Compound 1: 100
[3]; herbicide 8 g ai/ha
  Observed Response, Herbicide alone: 100
[4]; [5]
  Observed Response, Herbicide mixture with Compound 1: 7
[4]; herbicide 4 g ai/ha
  Observed Response, Herbicide alone: 27
[4]; [6]
  Observed Response, Herbicide mixture with Compound 1: 3
[4]; herbicide 8 g ai/ha
  Observed Response, Herbicide alone: 30
[4]; herbicide 16 g ai/ha + Compound 1 125 g ai/ha
  Observed Response, Herbicide mixture with Compound 1: 3
[4]; herbicide 16 g ai/ha
  Observed Response, Herbicide alone: 33
[4]; herbicide 31 g ai/ha + Compound 1 125 g ai/ha
  Observed Response, Herbicide mixture with Compound 1: 7
[4]; herbicide 31 g ai/ha
  Observed Response, Herbicide alone: 37
[4]; herbicide 62 g ai/ha + Compound 1 125 g ai/ha
  Observed Response, Herbicide mixture with Compound 1: 7
[4]; herbicide 62 g ai/ha
  Observed Response, Herbicide alone: 40
sugarcane; [7]
  Observed Response, Herbicide mixture with Compound 1: 45
sugarcane; [8]
  Observed Response, Herbicide mixture with Compound 1: 30
sugarcane; herbicide 30 g ai/ha
  Observed Response, Herbicide alone: 60
Surinam grass; [7]
  Observed Response, Herbicide mixture with Compound 1: 45
Surinam grass; [8]
  Observed Response, Herbicide mixture with Compound 1: 30
Surinam grass; herbicide 30 g ai/ha
  Observed Response, Herbicide alone: 50
Palisade grass; [7]
  Observed Response, Herbicide mixture with Compound 1: 40
Palisade grass; [8]
  Observed Response, Herbicide mixture with Compound 1: 20
Palisade grass; herbicide 30 g ai/ha
  Observed Response, Herbicide alone: 45
Alexandergrass; [7]
  Observed Response, Herbicide mixture with Compound 1: 45
Alexandergrass; [8]
  Observed Response, Herbicide mixture with Compound 1: 30
Alexandergrass; herbicide 30 g ai/ha
  Observed Response, Herbicide alone: 50
